According to US20230413812A1, “SANITIZING COMPOSITIONS CONTAINING IONIC LIQUID” (CAGE BIO, INC., priority 2020, published 2023):

Key:
Type in all cases: cell-based
[1] = test system: Escherichia coli (E. coli); test: Residual self-sanitizing activity on hard, non-porous glass surface per EPA Protocol 01-1A (manual wear cycles); conditions: in CGB-D-100 disinfectant; lowest concentration tested
From the text: The purpose of this study is to test residual self-sanitizing activity of CGB-D-100 disinfectant per EPA protocol 01-1A, “Residual Self-Sanitizing Activity of Dried Chemical Residues on Hard, Non-Porous Surfaces.”
The scope of this study is to evaluate residual self-sanitizing activity of CGB-D-100 disinfectant with three different concentrations of CG-101, and to compare it to a marketed disinfectant (Microban® 24). Glass surface (microscope slides) will be used as a non-porous surface. Sterile saline solution will be used as a negative control and Microban® 24 will be used as the positive control. The method will simulate contact and touches by incorporating wear or wiping of the test surface as well as reinoculations of the test and control surfaces over 24 hours. The EPA protocol requires the use of an automated abrasion tester to simulate wear from wiping the surface. For the purposes of this protocol, abrasion or wear were be performed manually using cotton wipes.
First, the glass slides will be washed with a non-medical soap and water followed by cleaning with 70% alcohol and allowed to air dry. […]
Test product, negative control, and positive control will be applied to replicate test surfaces according to the product's Directions for Use or until surface is completely wet. […] The temperature and humidity in the lab will be recorded. […]

[2] = Antimicrobial efficacy time kill test (ASTM E2783-11, neutralization per E1054-08)
Protocol: The purpose of this study was to test antimicrobial efficacy of 1%, 3%, and 5% CG-101 disinfectant formulations.
The study was performed using the following standard protocols: • I. American Society for Testing and Materials. Standard Test Methods for Evaluation of
Inactivators of Antimicrobial Agents; Designation: E1054-08 (Reapproved 2013). West Conshohocken, PA. • II. American Society for Testing and Materials. Standard Test Method for Assessment of Antimicrobial Activity for Water Miscible Compounds Using a Time-Kill Procedure. Designation: E2783-11 (Reapproved 2016). West Conshohocken, PA.
Initial neutralization testing confirmed that the test material was adequately neutralized at all concentrations tested. The time kill procedure included triplicate testing and all plate counts were performed in duplicate
CG-101 was added to water to form mixtures of 1 wt %, 3 wt %, and 5 wt % of CG-101.

[3] = test system: E. coli; test: Self-sanitizing activity of CG-101 in water and aqueous Poloxamer 407 on a surface with dried inoculum, 5 min contact
Protocol: This study was conducted to test the residual self-sanitizing activity of samples containing 5% CG-101 in water, in 5% aqueous […], and in 10% aqueous Poloxamer 407. Parameters of the experiments are listed below:
• Water (Negative Control) • 5% CG-101 Aqueous Solution (Positive Control) • 5% CG-101 in 5% Poloxamer 407 Aqueous Solution • 5% CG-101 in 10% Poloxamer 407 Aqueous solution
• 10 μl of E. coli suspension was applied on the surface and dried over 30 min • 1 ml of each test sample and control was applied on the surface with a dry inoculum • Contact time of 5 min was used • Neutralization was performed immediately after the contact time • 100 μl from each solution was plated onto agar plates and transferred to incubator set at 37 C for 48 hr. • Bacterial growth was observed after 48 hr. In the incubator.

[4] = 1 wt % CG-101 in water, 1 minute
[5] = 1 wt % CG-101 in water, 5 minutes
[6] = 1 wt % CG-101 in water, at seconds
[7] = 3 wt % CG-101 in water, 1 minute
[8] = 3 wt % CG-101 in water, 5 minutes
[9] = 3 wt % CG-101 in water, at seconds
[10] = 5 wt % CG-101 in water, 1 minute
[11] = 5 wt % CG-101 in water, 5 minutes
[12] = 5 wt % CG-101 in water, at seconds

In the case of Choline geranate [CG-101], the “concentration of CG-101 sufficient to kill all applied bacteria and to preserve the glass surface for 24 h” value [1] is reported as 2%, the killing [2, 4] is reported as 99.9% and the “log decrease in CFU” value [2, 4] is reported as greater than 3 log. The killing [2, 5] was 99.9%, the “log decrease in CFU” value [2, 5] was greater than 3 log and the killing [2, 6] was 99.9%. The “log decrease in CFU” value [2, 6] was greater than 3 log, the killing [2, 7] was 99.9% and the “log decrease in CFU” value [2, 7] was greater than 3 log. The killing [2, 8] was 99.9%, the “log decrease in CFU” value [2, 8] was greater than 3 log and the killing [2, 9] was 99.9%. For the same substance, the “log decrease in CFU” value [2, 9] was greater than 3 log, the killing [2, 10] was 99.9% and the “log decrease in CFU” value [2, 10] was greater than 3 log. The killing [2, 11] was 99.9%, the “log decrease in CFU” value [2, 11] was greater than 3 log and the killing [2, 12] was 99.9%. The “log decrease in CFU” value [2, 12] was greater than 3 log, the “bacterial growth on TSA plates” value ([3]; 5% CG-101 in 5% aqueous Poloxamer 407, 48 hr incubation) was “No bacterial growth” and the “bacterial growth on TSA plates” value ([3]; 5% CG-101 in 10% aqueous Poloxamer 407, 48 hr incubation) was “No bacterial growth”. The “bacterial growth on TSA plates” value ([3]; 5% CG-101 in water (positive control of this study), 48 hr incubation) was “No bacterial growth”.
